Source: patent US10981854B2 (SYMRISE AG, priority 2016, dated 2021)

Key:
[1] = Solubility test e): 4-HAP + 5 wt. % 1,2-pentanediol (Hydrolite 5) in cold water; format: physicochemical; conditions: for dissolution result: after ca. 50 min
[2] = Solubility test d): 4-HAP + 3 wt. % 1,2-pentanediol (Hydrolite 5) + 5 wt. % glycerin in warm water; format: physicochemical; conditions: for dissolution result: heating up to 50° C. and cooling down while stirring; for crystals on storage: stored at 5° C. and room temperature, after 24 h
[3] = Solubility test c): 4-HAP + 3 wt. % 1,2-pentanediol (Hydrolite 5) + 5 wt. % glycerin in cold water; format: physicochemical
[4] = General properties: behaviour when put into water; format: physicochemical; conditions: solid put into water in a beaker
Aspergillus brasiliensis = conditions: when used in cosmetics; Daily Chemical Industry 2015, 45:269; cited from earlier work
Pseudomonas aeruginosa = conditions: when used in cosmetics; Daily Chemical Industry 2015, 45:269; cited from earlier work
[5] = 0.5 wt. % 4-HAP + 5 wt. % 1,2-pentanediol
[6] = 1 wt. % 4-HAP + 5 wt. % 1,2-pentanediol
[7] = 0.5 wt. % 4-HAP + 3 wt. % 1,2-pentanediol + 5 wt. % glycerin
[8] = 1 wt. % 4-HAP + 3 wt. % 1,2-pentanediol + 5 wt. % glycerin

CC(=O)c1ccc(O)cc1 [Example 4, 4-hydroxyacetophenone]
dissolution result [1, 5]: a few little lumps of solid left undissolved | dissolution result [1, 6]: lumps of solid left undissolved | dissolution result [2, 7]: solved completely | crystals on storage [2, 7]: no crystals | dissolution result [2, 8]: solved completely | crystals on storage [2, 8]: no crystals | storage time after which crystallization/precipitation [3, 7]: 48 h | time until solved completely [3, 7]: ca. 50 min | dissolution result ([3]; 1 wt. % 4-HAP + 3 wt. % 1,2-pentanediol + 5 wt. % glycerin, after stirring for 60 min): a few lumps of solid left undissolved | behaviour when put into water [4]: agglomerates and sinks to the ground

CC(=O)c1ccc(O)cc1 [Example 3, 4-hydroxyacetophenone]
time until solved completely [1, 5]: ca. 50 min | crystallization/precipitation on storage ([1]; 0.5 wt. % 4-HAP + 5 wt. % 1,2-pentanediol, after 24 h of storage): no crystallization/precipitation | time until solved completely [1, 6]: ca. 50 min | storage time after which crystallization ([1]; 1 wt. % 4-HAP + 5 wt. % 1,2-pentanediol, stored at 5° C.): 24 h | dissolution result [2, 7]: solved completely | crystals on storage [2, 7]: no crystals | dissolution result [2, 8]: solved completely | crystals on storage [2, 8]: no crystals | storage time after which crystallization/precipitation [3, 7]: 48 h | time until solved completely [3, 7]: ca. 50 min | time until solved completely [3, 8]: ca. 50 min | crystallization/precipitation on storage ([3]; 1 wt. % 4-HAP + 3 wt. % 1,2-pentanediol + 5 wt. % glycerin, after 24 h of storage): no crystallization/precipitation | behaviour when put into water [4]: distributes on the surface and slowly falls to the ground of the beaker

CC(=O)c1ccc(O)cc1 [4-hydroxyacetophenone]
ability to kill Aspergillus brasiliensis (Aspergillus brasiliensis): great ability to kill | ability to restrain Pseudomonas aeruginosa (Pseudomonas aeruginosa): certain ability to restrain
